In patent US10774071B2, “PD-1/PD-L1 inhibitors” (Gilead Sciences, Inc., priority 2018, dated 2020):

What was measured:
[1] = biological target: PD-1/PD-L1 (Homo sapiens (Human), UniProt Q9NZQ7); experiment: PD-1/PD-L1 biochemical protein-protein interaction assay (ALPHA); assay type: binding; conditions: 0.3 nM His tagged PD-L1, 2.5 nM biotinylated Fc-PD-1, Table 3B, read-out: IC50 PD-L1-PD1
[2] = biological target: PD-L1 (Homo sapiens (Human), UniProt Q9NZQ7); experiment: PD-L1/PD-L1 dimerization biochemical protein-protein interaction assay (ALPHA); assay type: binding; conditions: 0.5 nM His tagged PD-L1 and 0.5 nM FLAG tagged PD-L1, Table 4B, read-out: AC50 PDL1 Dimer 1 nM
Sequence of PD-L1 (Q9NZQ7 19-238): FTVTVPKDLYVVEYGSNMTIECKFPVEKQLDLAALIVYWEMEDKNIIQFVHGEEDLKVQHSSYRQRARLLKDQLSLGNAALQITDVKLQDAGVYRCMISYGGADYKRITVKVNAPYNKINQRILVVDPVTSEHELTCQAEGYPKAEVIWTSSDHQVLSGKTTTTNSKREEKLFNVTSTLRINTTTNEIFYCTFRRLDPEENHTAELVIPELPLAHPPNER
Sequence of PD-L1 (Q9NZQ7 19-238): as above

Sequence of PD-1/PD-L1 (Q9NZQ7 19-238): as above

Row | SMILES | IC50 [1] [nM] | AC50 [2] [nM]
1 | COc1nc(O[C@H]2CCc3c(-c4cccc(-c5ccc(CNC[C@@H]6CCC(=O)N6)c(OC)c5F)c4Cl)cccc32)c(Cl)cc1CN1CC[C@@H](C(=O)O)C1 [B-143] | 0.064 | 42.1
2 | COc1nc(-c2cccc(-c3cccc4c3CC[C@@H]4Oc3nc(OC)c(CN4CC5(CC5)C[C@H]4C(=O)O)cc3C(F)(F)F)c2Cl)ccc1CNC[C@@H]1CCC(=O)N1 [B-144] | 0.064 | 8.98
3 | COc1nc(-c2cccc(-c3cccc4c3CC[C@@H]4Oc3nc(OC)c(CN4CC5CC4(C(=O)O)C5)cc3C(F)(F)F)c2Cl)ccc1CNC[C@@H]1CCC(=O)N1 [B-145] | 0.064 | 5.12
4 | COc1nc(-c2cccc(-c3cccc4c3CC[C@@H]4Oc3nc4c(nc3Cl)c(CN3CC5(CNC(=O)C5)C3)nn4C)c2Cl)ccc1CNC[C@@H]1CCC(=O)N1 [B-146] | 0.41 | 297
5 | COc1nc(-c2cccc(-c3cccc4c3CC[C@@H]4Oc3nc4c(nc3Cl)c(CNC[C@@H]3CCC(=O)N3)nn4C)c2Cl)ccc1CNC[C@@H]1CCC(=O)N1 [B-147] | 0.351 | 178
6 | COc1nc(-c2cccc(-c3cccc4c3CC[C@@H]4Oc3nc(OC)c(CN4CC(C(=O)O)C4)nc3C)c2Cl)ccc1CNC[C@@H]1CCC(=O)N1 [B-148] | 0.064 | 43.2
7 | COc1nc(-c2cccc(-c3cccc4c3CC[C@@H]4Oc3nc(OC)c(CN4CC[C@@H](C(=O)O)C4)nc3C)c2Cl)ccc1CNC[C@@H]1CCC(=O)N1 [B-150] | 0.064 | 65.1
8 | COc1nc(-c2cccc(-c3cccc4c3CC[C@@H]4Oc3nc(OC)c(CNC[C@@H]4CCC(=O)N4)nc3C)c2Cl)ccc1CNC[C@@H]1CCC(=O)N1 [B-151] | 0.072 | 66.2
9 | COc1nc(-c2cccc(-c3cccc4c3CC[C@@H]4Oc3nc(OC)c(CN4CC(C(=O)O)C4)nc3Cl)c2Cl)ccc1CNC[C@@H]1CCC(=O)N1 [B-152] | 0.064 | 12.7
10 | COc1nc(-c2cccc(-c3cccc4c3CC[C@@H]4Oc3nc(OC)c(CN4CC5(C(=O)O)CCC4CC5)nc3Cl)c2Cl)ccc1CNC[C@@H]1CCC(=O)N1 [B-153] | 0.064 | 19
11 | COc1nc(-c2cccc(-c3cccc4c3CC[C@@H]4Oc3nc(OC)c(CN4CC[C@@H](C(=O)O)C4)nc3Cl)c2Cl)ccc1CNC[C@@H]1CCC(=O)N1 [B-154] | 0.064 | 31.5
12 | COc1nc(-c2cccc(-c3cccc4c3CC[C@@H]4Oc3nc(OC)c(CNC[C@@H]4CCC(=O)N4)nc3Cl)c2Cl)ccc1CNC[C@@H]1CCC(=O)N1 [B-155] | 0.22 | 102
13 | COc1nc(-c2cccc(-c3cccc4c3CC[C@@H]4Oc3cnc(CN4CC[C@@H](C(=O)O)C4)c(OC)n3)c2Cl)ccc1CNC[C@@H]1CCC(=O)N1 [B-156] | 0.076 | 324
14 | COC(=O)[C@@H]1CCN(Cc2ncc(O[C@H]3CCc4c(-c5cccc(-c6ccc(CNC[C@@H]7CCC(=O)N7)c(OC)n6)c5Cl)cccc43)nc2OC)C1 [B-157] | 0.195 | 1420
15 | COc1nc(-c2cccc(-c3cccc4c3CC[C@@H]4Oc3nc(OC)c(CN4CCC(C(=O)N=S(C)(N)=O)CC4)cc3Cl)c2Cl)ccc1CNC[C@@H]1CCC(=O)N1 (stereo partly shown) [B-158] | 0.064 | 26.9
16 | COc1nc(-c2cccc(-c3cccc4c3CC[C@@H]4Oc3nc(OC)c(CN4CC(C(=O)N=S(C)(=O)NC(C)=O)C4)cc3Cl)c2Cl)ccc1CNC[C@@H]1CCC(=O)N1 (stereo partly shown) [B-159] | 0.064 | 24.9
17 | COc1nc(-c2cccc(-c3cccc4c3CC[C@@H]4Oc3nc(OC)c(CN4CC[C@@H](C(=O)N=S(C)(=O)N(CC(F)(F)F)CC(F)(F)F)C4)cc3Cl)c2Cl)ccc1CNC[C@@H]1CCC(=O)N1 (stereo partly shown) [B-160] | 0.54 | 309
18 | COc1nc(-c2cccc(-c3cccc4c3CC[C@@H]4Oc3nc(OC)c(CN4CC[C@@H](C(=O)N=S(C)(=O)NCC(F)(F)F)C4)cc3Cl)c2Cl)ccc1CNC[C@@H]1CCC(=O)N1 (stereo partly shown) [B-161] | 0.073 | 41.2
19 | COc1nc(-c2cccc(-c3cccc4c3CC[C@@H]4Oc3nc(OC)c(CN4CC[C@@H](C(=O)N=S(C)(=O)NC(=O)C(F)(F)F)C4)cc3Cl)c2Cl)ccc1CNC[C@@H]1CCC(=O)N1 (stereo partly shown) [B-162] | 0.082 | 134
20 | COc1nc(-c2cccc(-c3cccc4c3CC[C@@H]4Oc3nc(OC)c(CN4CC[C@@H](C(=O)N=S(C)(=O)NC(C)=O)C4)cc3Cl)c2Cl)ccc1CNC[C@@H]1CCC(=O)N1 (stereo partly shown) [B-163] | 0.064 | 39.1
21 | COc1nc(-c2cccc(-c3cccc4c3CC[C@@H]4Oc3nc(OC)c(CN4CC[C@@H](C(=O)N=S(C)(N)=O)C4)cc3Cl)c2Cl)ccc1CNC[C@@H]1CCC(=O)N1 (stereo partly shown) [B-164] | 0.27 | 66.9
22 | COc1cc(O[C@H]2CCc3c(-c4cccc(-c5ccc(CNC[C@@H]6CCC(=O)N6)c(OC)n5)c4Cl)cccc32)c(C(F)(F)F)cc1CN1CC[C@H](C(=O)O)C1 [B-165] | 0.064 | 24.6
23 | COc1cc(O[C@H]2CCc3c(-c4cccc(-c5ccc(CNC[C@@H]6CCC(=O)N6)c(OC)n5)c4Cl)cccc32)c(Cl)cc1CN1CC2(C(=O)O)CCC1CC2 [B-166] | 0.064 | 43.7
